Data reported in the supplement of paper PMC10307832.

Key:
Assay in all cases: relative viability (nuclei count vs DMSO), 5 days (fraction); higher = more cells survive
MK-8033 + Luminespib = compound: Cn1cc(-c2cnc3ccc4ccc(CS(=O)(=O)NCc5ccccn5)cc4c(=O)c3c2)cn1 [MK-8033] + CCNC(=O)c1noc(-c2cc(C(C)C)c(O)cc2O)c1-c1ccc(CN2CCOCC2)cc1 [Luminespib] (partner 0.01 µM)
Method in brief: (§1)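 Each reported value is a median over duplicate plates. It expresses relative viability: treated-well nuclei count divided by vehicle-well nuclei count. Lung cancer cell lines in 1536-well plates were dosed by pin tool a day after seeding, alone with one drug or with a fixed anchor-drug dose plus five library-drug doses (not always all listed) in √10 steps, and nuclei were counted after 5 days.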

Irinotecan + Foretinib = compound: CCc1c2c(nc3ccc(OC(=O)N4CCC(N5CCCCC5)CC4)cc13)-c1cc3c(c(=O)n1C2)COC(=O)[C@]3(O)CC [Irinotecan] + COc1cc2c(Oc3ccc(NC(=O)C4(C(=O)Nc5ccc(F)cc5)CC4)cc3F)ccnc2cc1OCCCN1CCOCC1 [Foretinib] (partner 0.25 µM)
Method in brief: as §1

MK-8033 + Bortezomib = compound: Cn1cc(-c2cnc3ccc4ccc(CS(=O)(=O)NCc5ccccn5)cc4c(=O)c3c2)cn1 [MK-8033] + CC(C)C[C@H](NC(=O)[C@H](Cc1ccccc1)NC(=O)c1cnccn1)B(O)O [Bortezomib] (partner 0.002 µM)
Method in brief: as §1

RU-SKI 43 + Foretinib = compound: CC[C@@H](C)CNCC(=O)N1CCC2=C([C@@H]1COC3=CC=CC(=C3)C)C=CS2 [RU-SKI 43] + COc1cc2c(Oc3ccc(NC(=O)C4(C(=O)Nc5ccc(F)cc5)CC4)cc3F)ccnc2cc1OCCCN1CCOCC1 [Foretinib] (partner 0.25 µM)
Method in brief: as §1

| Cell Line | relative viability (MK-8033 + Luminespib; first compound 0.02 µM) | relative viability (MK-8033 + Luminespib; first compound 0.06325 µM) | relative viability (MK-8033 + Luminespib; first compound 0.2 µM) | relative viability (MK-8033 + Luminespib; first compound 0.6325 µM) | relative viability (MK-8033 + Luminespib; first compound 2 µM) | relative viability (Irinotecan + Foretinib; first compound 0.6325 µM) | relative viability (Irinotecan + Foretinib; first compound 2 µM) | relative viability (Irinotecan + Foretinib; first compound 6.325 µM) | relative viability (Irinotecan + Foretinib; first compound 20 µM) | relative viability (MK-8033 + Bortezomib; first compound 0.02 µM) | relative viability (MK-8033 + Bortezomib; first compound 0.06325 µM) | relative viability (MK-8033 + Bortezomib; first compound 0.2 µM) | relative viability (MK-8033 + Bortezomib; first compound 0.6325 µM) | relative viability (MK-8033 + Bortezomib; first compound 2 µM) | relative viability (RU-SKI 43 + Foretinib; first compound 0.1 µM) | relative viability (RU-SKI 43 + Foretinib; first compound 0.3162 µM) | relative viability (RU-SKI 43 + Foretinib; first compound 1 µM) | relative viability (RU-SKI 43 + Foretinib; first compound 3.162 µM) | relative viability (RU-SKI 43 + Foretinib; first compound 10 µM) |
| --- | --- | --- | --- | --- | --- | --- | --- | --- | --- | --- | --- | --- | --- | --- | --- | --- | --- | --- | --- |
| NCI-H1666 | 1 | 0.987 | 0.979 | 1.03 | 0.924 | 0.774 | 0.689 | 0.654 | 0.404 | 0.766 | 0.722 | 0.886 | 0.822 | 0.806 | 0.922 | 0.96 | 0.926 | 0.773 | 0.848 |
| HARA | 0.675 | 0.621 | 0.681 | 1.03 | 0.557 | 0.315 | 0.174 | 0.116 | 0.127 | 1.07 | 1.1 | 1.13 | 1.17 | 1.07 | 1.06 | 1.25 | 1.01 | 1.25 | 1.13 |
| NCI-H661 | 0.926 | 0.938 | 0.893 | 0.948 | 0.872 | 0.957 | 0.913 | 0.605 | 0.397 | 0.764 | 0.685 | 0.647 | 0.907 | 0.858 | 1.01 | 1.29 | 1 | 1.09 | 0.894 |
| NCI-H2087 | 0.119 | 0.174 | 0.148 | 0.242 | 0.148 | 0.748 | 0.326 | 0.169 | 0.192 | 0.877 | 0.77 | 0.828 | 0.687 | 0.829 | 1.07 | 1.25 | 1.24 | 1.28 | 0.961 |
| LC-2-ad | 1.04 | 0.97 | – | 1.08 | 0.878 | 0.73 | 0.621 | 0.288 | 0.235 | 1.12 | 0.996 | 0.885 | 0.996 | 0.933 | 0.929 | 0.922 | 0.908 | 1.02 | 0.838 |
| NCI-H2405 | 0.711 | 0.614 | 0.65 | 0.64 | 0.814 | – | 0.897 | 0.394 | 0.307 | 1 | 0.961 | 0.932 | 0.771 | 1.03 | 1.08 | 1.03 | 1.04 | 1.09 | 1.05 |
| HCC-44 | 1.06 | 1.02 | 1.01 | 1.3 | 1.05 | – | – | – | – | 0.9 | 0.838 | 0.803 | 0.907 | 0.833 | – | – | – | – | – |
| NCI-H3122 | 0.0907 | 0.0983 | 0.0777 | 0.0917 | 0.0881 | 0.833 | 0.236 | 0.183 | 0.171 | 1.08 | 1.01 | 0.982 | 0.999 | 0.941 | 0.941 | 1.05 | 1 | 0.994 | 0.972 |
| LU99A | 0.24 | 0.272 | 0.258 | 0.177 | 0.241 | 0.366 | 0.253 | 0.187 | 0.225 | 1.32 | 1.09 | 1.09 | 1.13 | 1.12 | 0.86 | 0.99 | 0.815 | 0.742 | 0.731 |
| ABC-1 | 0.544 | 0.545 | – | 0.602 | 0.473 | – | 0.617 | 0.28 | 0.152 | 0.307 | 0.263 | 0.319 | 0.337 | 0.313 | 1.04 | 1.05 | 1.04 | 1.06 | 0.754 |
| H3255 | 0.864 | 0.737 | 0.834 | 0.896 | 0.916 | 0.398 | 0.558 | 0.36 | 0.305 | 0.846 | 0.585 | 0.822 | 0.825 | 0.705 | 0.914 | 0.83 | 0.817 | 0.708 | 0.841 |
| HCC-827 | 0.43 | – | 0.591 | 0.59 | 1.07 | 0.637 | 0.324 | 0.207 | 0.175 | 1.06 | 1.01 | 1.05 | 1.08 | 1.04 | 1.01 | 1.11 | 1.11 | 1.07 | 1.01 |
| NCI-H1734 | 0.173 | 0.177 | 0.176 | 0.182 | 0.17 | – | 0.52 | 0.193 | 0.187 | 1.14 | 0.814 | 0.871 | 0.898 | 0.916 | 0.844 | 0.913 | 0.938 | 0.781 | 0.656 |
| EBC-1 | – | – | – | – | – | 0.0988 | 0.1 | 0.115 | 0.112 | 0.532 | 0.489 | 0.597 | 0.563 | 0.309 | 0.103 | 0.0955 | 0.101 | 0.0987 | 0.109 |
| NCI-H838 | 0.248 | 0.292 | 0.335 | 0.296 | 0.273 | 1.11 | 0.743 | 0.392 | 0.298 | 0.794 | 0.721 | 0.87 | 0.79 | 0.706 | 1.15 | 0.994 | 0.987 | 1.21 | 0.964 |
| NCI-H1437 | 1.11 | 1 | 1.05 | 1.08 | 1.04 | 0.954 | 0.616 | 0.42 | 0.368 | 0.469 | 0.444 | 0.512 | 0.489 | 0.419 | 1.22 | 1.24 | 1.37 | 1.2 | 1.22 |
| NCI-H1915 | 0.728 | 0.8 | 0.676 | 0.827 | 0.668 | 0.45 | 0.283 | 0.192 | 0.2 | 1 | 0.911 | 0.975 | 1.03 | 0.952 | 1.19 | 1.23 | 1.17 | 1.15 | 1.14 |
| SK-MES-1 | 0.628 | 0.728 | 0.722 | 0.908 | 0.823 | 0.915 | 0.644 | 0.441 | 0.285 | – | – | – | – | – | 1.09 | 1.04 | 0.97 | 1.1 | 0.907 |
